According to US20060223779A1, “Method of screening for inhibitors of human Fatty Acid-CoA Ligase 4” (priority 2000, published 2006):

How the values were obtained:
[1] = tested on: FACL4/COX-2 double stable cells; assay: Cell survival of FACL4/COX-2 double stable cells after TNFα or A23187; format: cell-based, human; settings: for surviving fraction, induced cells: FACL4/COX-2 double stable cells induced with ponasterone; for surviving fraction, induced cells / surviving fraction, uninduced cells: TNFα 1 ng/ml or A23187 5 μM, 72 hr, n=3; for surviving fraction, uninduced cells: FACL4/COX-2 double stable cells without induction
Experimental: (§1) FIG. 5: Enzymatic “sinks” for free arachidonic acid protect against TNFα_ and calcium ionophore_mediated cell killing. (A) Determination of cell survival. The cells were induced (+Pon) or not (−Pon) for 24 hr, and TNFα (1 ng/ml) or the calcium ionophore A23187 (5 μM) was added, and the cells were incubated for another 72 hr. The surviving fraction was determined and is plotted relative to that of the same line without TNFα or A23187 treatment. Ctl denotes control cells harboring an empty vector, while FACL4/COX-2 denotes the double stable line. (B) Measurement of the free AA. The FACL4/COX-2 cells were prelabeled with [^3H] AA, induced, and stimulated with A23187 (5 μM), and [^3H] AA release was measured at the indicated time intervals. The values are from one experiment that is representative of four independent determinations.
Stable cell lines. The ecdysone inducible system (Invitrogen) was used to construct stable lines over-expressing human FACL4, COX-2, COX-2 mutant, and both FACL4 and COX-2. […] The cDNAs were cloned into pIND(SP1) (Neomycin^r). The cDNA constructs, or the empty vector pIND(SP1) were transfected into EcR293 cells, which were then selected in 400 μg/ml geneticin and 400 μg/ml zeocin. A number of single colonies were screened for over-expression of FACL4, COX-2 wild type, and COX-2 mutant by immunoblotting against anti-FACL4 (See Y. Cao et al., 467 FEBS Lett. 263-267 (2000)), and anti-COX-2 antibodies (a gift from Dr. Jacques Maclouf), and by measurement of the CoA ligase activity for FACL4 (See D. B. Wilson et al., 257 J. Biol. Chem. 3510-3515 (1992)), or the PGE2 secretion for COX-2 wild type (ELISA assay, Assay Design, Inc.). The double stable line was generated by stably transfecting the COX-2 stable cells with another pIND(SP1)-FACL4 cDNA construct, in which the FACL4 cDNA was cloned into a pIND(SP1) (hygromycin^r) vector. The cells were selected in 400 μg/ml geneticin, 400 μg/ml zeocin, and 50 μg/ml hygromycin B. The positive colonies were screened as described above.
(§2) Cell survival. Cell viability was determined with the crystal violet staining (See M. Hayakawa et al., 268 J. Biol. Chem. 11290-11295 (1993).

COX-2 stable 293 cells = assay: Apoptosis in stably transfected 293 cells with inducible COX-2 over-expression; format: cell-based, human
Experimental: (A) Conditional expression level of FACL4 and COX-2 in stably transfected lines. Cells were treated with (+) or without (−) ponasterone (1 μg/ml) for 48 hr, and Western blotting was carried out with anti-FACL4 and anti-COX-2 antibodies, respectively. The loading was normalized with an anti-β actin antibody (ICN Biomedicals). […] The 293 cells stably transfected with an empty control vector (Ctl), FACL4 cDNA, COX-2 cDNA, and both FACL4 and COX-2 cDNAs were uninduced (−Pon) or induced for over-expression (+Pon) as in A. AA (300 μM) was added after 24 hr of induction and apoptosis was determined 44 hr later. […] The plot is a comparison of the relative apoptosis levels among the stable lines and is representative of three independent experiments. The values shown are the averages of triplicate determinations. […] Cells were uninduced (−Pon) or induced for over-expression as above. […] COX inhibitors were administered 6 hr later as indicated. AA (300 μM) was then added after 2 hr and apoptosis was determined 44 hr later. The plot is prepared as in B, and is a representative result from three independent experiments, in which triplicates were performed. Wt=wild-type, Mut=mutant, Met=50 μM 6-methoxy-2-naphthyl acetic acid, Indo=10 μM indomethacin. […] The COX-2, FACL4/COX-2 stable and control cells carrying an empty vector were induced for 48 hr, washed and incubated with 20 μM AA at 37° C. for 30 min. The amount of PGE2 synthesized was determined by ELISA. […] (E) The levels of free AA in the stable lines. The [^3H]
(§3) Cell Death Detection ELISA. Cells were plated on 96 well-plates at 1×10^4 cells per well. AA was applied and apoptotic death was determined after 44 hr with the Cell Death Detection ELISA (Boehringer Mannheim).
Stable cell lines. The ecdysone inducible system (Invitrogen) was used to construct stable lines over-expressing human FACL4, COX-2, COX-2 mutant, and both FACL4 and COX-2. […] The cDNAs were cloned into pIND(SP1) (Neomycin^r). The cDNA constructs, or the empty vector pIND(SP1) were transfected into EcR293 cells, which were then selected in 400 μg/ml geneticin and 400 μg/ml zeocin. […] The double stable line was generated by stably transfecting the COX-2 stable cells with another pIND(SP1)-FACL4 cDNA construct, in which the FACL4 cDNA was cloned into a pIND(SP1) (hygromycin^r) vector. The cells were selected in 400 μg/ml geneticin, 400 μg/ml zeocin, and 50 μg/ml hygromycin B. The positive colonies were screened as described above.

293 cells [2] = assay: Cell survival (crystal violet staining) in 293 cells; format: cell-based, human
Experimental: (§4) FIG. 3: Arachidonic acid induces apoptosis via activation of caspase 3. (A) Determination of cell survival. AA was added to 293 cells at the indicated concentrations and the surviving fraction of cells was determined after 44 hr. The values shown are relative to the viability of cells that were not exposed to AA. (B) Increased apoptosis in cells exposed to AA. Cells were treated with AA (300 μM) or palmitic acid (300 μM) under the same conditions as in A, and then apoptosis was detected with an ELISA. The mean values from triplicate determinations are shown. […] The 293 cells were treated with AA (300 μM; +AA) or vehicle alone (−AA) for 44 hr. The nuclei were stained with DAPI, and DNA strand breaks in individual cells were detected with a fluorescent TUNEL assay. The upper panels are the same field of cells (−AA) photographed under UV (left panels) and FITC filters (right panels). The lower panels illustrate apoptotic cells (+AA). The magnification is 80×. (D) Immunostaining with an anti-active caspase 3 antibody. Upper panels, control cells (−AA); lower panels, cells exposed to 300 μM AA. Left panels, DAPI staining; right panels, immunostaining with an antibody selective for active caspase 3. The magnification is 100×. […] The 293 cells were preincubated with caspase inhibitors (including DMQD, a caspase 3 inhibitor, and YVAD, a caspase 1 and 4 inhibitor (Peptide Institute)) for 1 hr at the indicated concentrations, AA (300 μM) was added, and apoptosis was determined 44 hr later. The values represent the means from triplicate determinations.
as §2

FACL4/COX-2 cells = assay: [3H] arachidonic acid release after A23187 (pulse-chase); format: cell-based, human; settings: A23187 5 μM
Experimental: as §1
Arachidonic acid release. Cells were plated on 6 well-plates precoated with poly-L-lysine at 8×10^5 cells per well. They were then prelabeled with [^3H] AA (0.4 μCi/ml medium) (91.8 Ci/mmol, 100 μCi/ml, NEN) for 24 hr. After a wash, serum-free DMEM supplemented with 1% BSA (fatty acid free) was added. […] The AA release stimulated by A23187 was calculated by subtracting the released AA by unstimulated cells, from that by A23187-stimulated counterparts.

caspase 3 = assay: Caspase 3-like activity in AA-treated cells; format: cell-based; settings: not shown
293 cells [3] = assay: Lipid peroxidation assay (MDA and 4-HNE) in 293 cells; format: cell-based, human
Experimental: FIG. 6: Cells exposed to AA show increased lipid peroxidation; apoptosis is blocked by antioxidants and Bcl-2. (A) The level of lipid oxidation products. The 293 cells were treated with AA at the indicated concentrations for 48 hr. The data presented are from one experiment that is representative of two independent experiments. […] Antioxidants were applied to 293 cells at the indicated concentration for 1 hr, and then AA (200 μM) was added. Apoptosis was determined after 44 hr and is shown relative to the level in control cells. […] Cells were transfected with the empty vector (Ctl) or with a cDNA encoding Bcl-2 and then were exposed to AA (300 μM). The level of apoptosis was determined after 44 hr. The values shown indicate the apoptosis level relative to control cells, and represent the means of triplicate determinations (P<0.05). The expression of Bcl-2 was detected by Western blotting. (D) The level of Bcl-2 expression in the stable cells. The stably transfected cells were induced, or not, with ponasterone for 24 or 48 hr. Cell lysates were blotted with an antibody to Bcl-2. Normalization was performed with an anti-β-actin antibody.
Lipid peroxidation assay. Cells were plated and treated with AA for 48 hr. […] The cellular malondialdehyde (MDA) and 4-hydroxynonenal (4-HNE) levels were determined with the lipid peroxidation assay kit (Calbiochem).

293 cells [4] = assay: Apoptosis by Cell Death Detection ELISA in 293 cells; format: cell-based, human; settings: 44 hr
Experimental: as §4, §3

[5] = tested on: colon and prostate cancer cells; settings: by down-regulating Bcl-2; literature reports; cited from earlier work

Compound: COc1ccc2cc(CC(=O)O)ccc2c1 [6-methoxy-2-naphthylacetic acid]
- effect on the improvement in cell survival in the double stable cells ([1]; double stable cells, not shown): partially abolished the improvement in cell survival
- effect on the prevention of apoptosis by COX-2 (COX-2 stable 293 cells; 50 μM, AA 300 μM, COX-2 over-expressing cells): abolished the prevention of apoptosis by COX-2

Compound: CCCCC[C@H](O)/C=C/C=C\C/C=C\C/C=C\CCCC(=O)O [15-HETE]
- effect on cell survival (293 cells [2]; 293 cells, not shown): did not affect cell survival

Compound: CNc1ccc2oc(C[C@H]3O[C@@]4(CC[C@H]3C)O[C@H]([C@H](C)C(=O)c3ccc[nH]3)[C@H](C)C[C@H]4C)nc2c1C(=O)O [A23187]
- surviving fraction, induced cells [1]: 67.8%
- surviving fraction, uninduced cells [1]: 37.8%
- AA release to the medium in response to A23187, control cells (FACL4/COX-2 cells; control cells): released a large amount of AA
- AA release to the medium in response to A23187, over-expression of FACL4 and COX-2 (FACL4/COX-2 cells; induced FACL4/COX-2 cells): completely abolished

Compound: CCCCC/C=C\C/C=C\C/C=C\C/C=C\CCCC(=O)O [AA, Arachidonic acid]
- maximal increase in caspase 3-like activity compared to control cells (caspase 3): ~4.5 fold
- time of peak caspase 3-like activity (caspase 3): 17 h
- fold-increase in apoptosis after fatty acid treatment (COX-2 stable 293 cells; 200 μM): 8.5 fold
- reduction of fatty acid-induced apoptosis by inducing COX-2 over-expression (COX-2 stable 293 cells; COX-2 over-expression induced, n=3): 36.7%
- cell survival, % of the control (293 cells [2]; 293 cells, increasing exogenous AA concentration, 44 hr): 23%
- formation of lipid peroxidation products (293 cells [3]; 293 cells exposed to AA, 48 hr): enhanced formation of malondialdehyde and 4-hydroxy-2(E)-nonenal
- apoptosis (mono- and oligo-nucleosomes) over the control (293 cells [4]; 293 cells, 300 μM): 18 fold

Compound: CS(=O)(=O)Nc1ccc([N+](=O)[O-])cc1OC1CCCCC1 [NS398]
- reported effect on apoptosis [5]: enhance the induction of apoptosis

Compound: CCCCC[C@H](O)/C=C/[C@H]1[C@H](O)CC(=O)[C@@H]1C/C=C\CCCC(=O)O [PGE2]
- cell viability in the presence of exogenous AA (293 cells [2]; 50 μM added directly, not shown): did not improve cell viability

Compound: CCCCC[C@H](O)/C=C/[C@H]1C(=O)C=C[C@@H]1C/C=C\CCCC(=O)O [PGJ2]
- cell viability in the presence of exogenous AA (293 cells [2]; 5 μM added directly, not shown): did not improve cell viability

Compound: CS(=O)(=O)c1ccc(-n2nc(C(F)(F)F)cc2-c2ccc(F)cc2)cc1 [SC-58125]
- reported effect on apoptosis [5]: enhance the induction of apoptosis

Compound: TNFα
- surviving fraction, induced cells [1]: 70.5%
- surviving fraction, uninduced cells [1]: 43.5%

Compound: z-DMQD-fmk
- effect on generation of peroxidized lipids (293 cells [3]; AA-exposed cells, not shown): did not block the generation of peroxidized lipids
- blocking of AA-induced apoptosis by caspase inhibitor (293 cells [4]; 293 cells preincubated 1 hr with inhibitor, AA 300 μM): significantly blocked apoptosis
